± gives the standard deviation.
Tests used:
[1] = target: Toxoplasma gondii RH tachyzoites; assay: EC50 growth inhibition (48 h luciferase)
[2] = test system: Plasmodium falciparum 3D7; assay: % inhibition of schizont-to-ring transition vs DMSO; higher = more inhibition
Method in brief: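 Schizont-to-ring transition inhibition is the formation of new rings relative to vehicle controls. Tightly synchronised P. falciparum schizonts at about 40–42 hours post-invasion (1% parasitemia, 2.5% hematocrit, AlbuMAX-supplemented RPMI) were treated with compound at 1, 3 or 10 µM, alongside vehicle and positive controls. After glutaraldehyde fixation, Triton permeabilisation and Hoechst 33342 staining, at least 100,000 events were counted by flow cytometry, and values are the mean of three experiments.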

[3] = test system: Plasmodium falciparum 3D7; assay: EC50 growth inhibition (60 h, SYBR Green); settings: stage: ring-stage start
[4] = test system: Toxoplasma gondii RH tachyzoites; assay: % growth inhibition vs DMSO (48 h luciferase); higher = more inhibition; settings: 10 µM
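Wherever % growth inhibition vs DMSO (48 h luciferase) is given: tested in triplicate wells of 96-well plates on confluent HFF monolayers, with 1% DMSO wells as negative control in four replicates.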

Row | SMILES | EC50 growth inhibition [1] [µM] | % inhibition of schizont-to-ring transition ([2]; 1 µM) [%] | % inhibition of schizont-to-ring transition ([2]; 3 µM) [%] | % inhibition of schizont-to-ring transition ([2]; 10 µM) [%] | EC50 growth inhibition [3] [µM] | % growth inhibition [4] [%]
1 | CCOC(=O)c1cnc2ccc(Cl)cc2c1NCCCN(C)C | 2.34 | 0.181 | 23.3 | 54.9 | 1.02 | 82.2 ± 2.8
2 | CCCCNCC(O)(c1ccc(Cl)cc1)c1ccc(Cl)cc1 | 6.55 | 8.52 | 48.1 | 70.3 | 0.527 | 97.55 ± 0.55
3 | CC(C)(C)C(=O)Nc1ccc(C(=O)Nc2cccc(-c3nc4ccccc4[nH]3)c2)cc1 | 2.08 | 22.8 | 32.4 | 56.2 | 1.82 | 88.4 ± 1.2
4 | CCCCCn1c(=N)n(CC(O)COc2cccc(C)c2)c2ccccc21 (centres undefined) | 1.77 | 8.72 | 13.3 | 61.9 | 1.94 | 99.47 ± 0.32
5 | CSC1=NC(=Nc2c(C)cccc2C)C2(CCC(C(C)(C)C)CC2)N1c1ccc(Cl)cc1 (centres undefined) | 0.775 | 12.4 | 26.3 | 49.9 | 0.869 | 99.94 ± 0.22
6 | CCCCCCC(O)(c1ccc(F)cc1)C(CN1CCOCC1)c1ccccc1 (centres undefined) | 3.57 | 37.5 | 40.1 | 40.3 | 2.16 | 100.1 ± 0.26
7 | FC(F)(F)c1cccc(Nc2nc3ccccc3nc2Nc2cccc(C(F)(F)F)c2)c1 | 0.0464 | < 0 | 15.6 | 42.7 | 6.4 | 99.49 ± 0.16
8 | CCn1nc(-c2ccc(C(=O)OC)cc2)nc2c(=O)n(C)c(=O)nc1-2 | 2.2 | 30.7 | 37.6 | 53.3 | 0.107 | 100.5 ± 0.19
9 | COc1cc(-c2nc(-c3ccc(Sc4ccccc4)cc3)c(-c3ccccc3)[nH]2)cc(OC)c1O | 1.32 | < 0 | < 0 | 45.4 | 0.449 | 98.59 ± 0.34
10 | CCOc1ccc2nc(C)cc(Nc3ccc(Br)cc3)c2c1 | 4.41 | 28 | 45.8 | 44.9 | 0.18 | 99.53 ± 0.2
11 | COc1cc(C(=O)Nc2ccc(-c3nc4ccccc4[nH]3)cc2)cc(OC)c1OC | 4.73 | < 0 | 9.26 | 43.1 | 0.788 | 91.42 ± 0.58
12 | O=c1c2c([nH]c3ccccc13)CCCC2 | 1.04 | 13.7 | 22.2 | 42.9 | 1.79 | 89.6 ± 1.1
13 | Oc1c(C(Nc2ccccn2)c2cccc(Oc3ccccc3)c2)ccc2cccnc12 (centres undefined) | 1.08 | 27.1 | 43.9 | 64.8 | 0.852 | 99.07 ± 0.26
14 | Cc1cc(Nc2cccc(F)c2)nc(NCc2ccccc2)n1 | 0.879 | 43.1 | 60.2 | 70.5 | 0.149 | 97.33 ± 0.9
15 | Cc1ccc2nc(C)cc(Nc3cccc(C(F)(F)F)c3)c2c1 | 0.465 | 2.29 | 31.8 | 62.9 | 0.894 | 99.29 ± 0.18
16 | O=C(Nc1ccc(N2CCN(Cc3ccccc3)CC2)cc1)c1cccs1 | 0.183 | 22.9 | 21.2 | 39.3 | 1.87 | 91.82 ± 0.81
17 | CCCc1c(C)nc2ccccc2c1O | 0.803 | 8.03 | 21.8 | 46.6 | 1.01 | 87.69 ± 0.86

Row | SMILES | EC50 growth inhibition [1] [µM] | % inhibition of schizont-to-ring transition ([2]; 1 µM) [%] | % inhibition of schizont-to-ring transition ([2]; 3 µM) [%] | % inhibition of schizont-to-ring transition ([2]; 10 µM) [%] | EC50 growth inhibition [3] [µM] | % growth inhibition [4] [%]
18 | Cc1ccnc(NC(c2cccc(OCc3ccccc3)c2)c2ccc3cccnc3c2O)c1 (centres undefined) | 0.786 | 17.5 | 41.1 | 62.9 | 0.886 | 98.51 ± 0.34
19 | Cc1ccc(C2CC(C(F)(F)F)n3nc(C(=O)N4CCN(C(c5ccccc5)c5ccccc5)CC4)cc3N2)cc1 (centres undefined) | 1.66 | < 0 | < 0 | 35.3 | 2.04 | 99.677 ± 0.058
20 | N=c1n(CCN2CCCCC2)c2ccccc2n1CC(=O)c1ccc(Cl)c(Cl)c1 | 1.82 | 36.2 | 57.9 | 80.4 | 0.237 | 99.931 ± 0.065
21 | COCCNC(=O)c1ccc(OC2CCN(Cc3ccc(F)c(F)c3)CC2)c(Cl)c1 | 0.27 | 10.5 | 23.7 | 52.4 | 1.25 | 97.36 ± 0.96
22 | Clc1cc(Br)ccc1-c1ccc(CNCC2CCNCC2)o1 | 0.207 | 46 | 50.9 | 74.4 | 0.763 | 99.53 ± 0.77
23 | COc1ccc(-c2nc(N3CCN(C(=O)C4CCCCC4)CC3)c3c4c(sc3n2)CCCC4)cc1 | 3.08 | 10.6 | 17.7 | 44.9 | 4.08 | 86 ± 3.8
24 | Cc1ccc(Cl)cc1N1CCN(CCCNC(=O)C2CCN(c3nc4ccccc4[nH]3)CC2)CC1 | 3.25 | 37.8 | 50.8 | 60.5 | 0.92 | 98.63 ± 0.9
25 | COc1ccc(-c2nc3cc(Cc4ccc5[nH]c(-c6ccc(OC)cc6)nc5c4)ccc3[nH]2)cc1 | 1.47 | 50.4 | 65.3 | 68.3 | 0.185 | 100 ± 0.58
26 | CCOC(=O)C1=CN(C)C=C(C(=O)OCC)C1c1cc(Br)c(OCC)c(OC)c1 | 2.59 | 41.2 | 58.3 | 58.9 | 1.04 | 95.51 ± 0.24
27 | CCCCCCc1cc(O)c2c3c(c(=O)oc2c1)CCC(C)C3 (centres undefined) | 0.471 | 18.6 | 34.9 | 52.4 | 3.41 | 99.37 ± 0.72
28 | O=C(Nc1ccc(CN2CCOCC2)cc1)c1ccc(-c2cc(Cl)ccc2Cl)o1 | 5.59 | 5.81 | 22.5 | 42.6 | 1.23 | 81.1 ± 4.3
29 | CC(C)OCc1cc(CN2CCN(c3cccc(Cl)c3)CC2)c(O)c2ncccc12 | 1.69 | 7.59 | 35.5 | 53.9 | 3.17 | 81.6 ± 18
30 | O=C(Nc1ccc(N2CCCCC2)c(Cl)c1)c1ccc(Br)o1 | 7.4 | 29.7 | 39.7 | 53 | 0.812 | 82.4 ± 6.4
31 | CC(C)(C)CC(C)(C)NCC(O)COc1ccc(Cl)cc1Cl (centres undefined) | 2.05 | 22.6 | 40.4 | 78.1 | 0.576 | 99.763 ± 0.02
32 | Cc1sc(NC(=O)c2ccccc2)c(C(c2cccs2)N2CCN(c3ccccc3)CC2)c1C (centres undefined) | 0.55 | 5.65 | 10.7 | 36.5 | 1.93 | 88.7 ± 5.2
33 | COc1ccc(C2Sc3ccccc3N=C3C2=C(O)c2ccccc23)cc1 (centres undefined) | 0.963 | < 0 | 1.15 | 31.1 | 1.18 | 98.68 ± 0.16
34 | O=c1nc(C=Cc2ccc(Cl)cc2)oc2ccccc12 | 0.0324 | 16.8 | 24.1 | 56.2 | 0.999 | 94.2 ± 2.2
